In patent US8686010B2, “Aryl- or heteroaryl-sulfonyl compounds as acid secretion inhibitors” (Takeda Pharmaceutical Company Limited, priority 2006, dated 2014):
Where a name gives a salt, the structure may show the parent alone.

Target: T1, H+,K+-ATPase (Sus scrofa, UniProt P19156)
T1 construct: The obtained microsomal fraction was used as a proton, potassium—adenosine triphosphatase standard product; from tissue; host or cells: swine stomach, gastric mucous membrane microsomal fraction
Assay: Proton potassium-adenosine triphosphatase (H+,K+-ATPase) inhibitory activity test
Type: biochemical
Conditions: gastric mucous membrane microsomal fraction from swine stomach; pH 6.5, 37° C., malachite green colorimetry at 610 nm; read-out: IC50 (50% inhibitory concentration of proton, potassium-adenosine triphosphatase)
Description: Proton Potassium—Adenosine Triphosphatase (H^+,K^+-ATPase) Inhibitory Activity Test
According to the method [Biochim. Biophys. Acta, 728, 31 (1983)] of Wallmark et al., a gastric mucous membrane microsomal fraction was prepared from the stomach of swine. First, the stomach was removed, washed with tap water, immersed in 3 mol/L brine, and the surface of the mucous membrane was wiped with a paper towel. The gastric mucous membrane was detached, chopped, and homogenized in a 0.25 mol/L saccharose solution (pH 6.8) containing 1 mmol/L EDTA and 10 mmol/L tris-hydrochloric acid using polytron (Kinematica). The obtained homogenate was centrifuged at 20,000×g for 30 min and the supernatant was centrifuged at 100,000×g for 90 min. The precipitate was suspended in 0.25 mol/L saccharose solution, superimposed on a 0.25 mol/L saccharose solution containing 7.5% Ficoll, and centrifuged at 100,000×g for 5 hr. The fraction containing the interface between the both layers was recovered, and centrifugally washed with 0.25 mol/L saccharose solution.
The obtained microsomal fraction was used as a proton, potassium—adenosine triphosphatase standard product.
To 40 μL of a 50 mmol/L HEPES-tris buffer (5 mmol/L magnesium chloride, 10 mmol/L potassium chloride, 10 μmol/L valinomycin, pH=6.5) containing 2.5 μg/mL (based on the protein concentration) of the enzyme standard product was added a test compound (5 μL) dissolved in a 10% aqueous dimethyl sulfoxide solution, and the mixture was incubated at 37° C. for 30 min. The enzyme reaction was started by adding 5 μL of a 2 mmol/L adenosine triphosphate tris salt solution (50 mmol/L HEPES-tris buffer (5 mmol/L magnesium chloride, pH 6.5)). The enzyme reaction was performed at 37° C. for 20 min, and 15 μL of a malachite green solution (0.12% malachite green solution in sulfuric acid (2.5 mol/L), 7.5% ammonium molybdate and 11% Tween 20 were mixed at a ratio of 100:25:2) was added to quench the reaction. After allowing to stand at room temperature for 15 min, the resulting reaction product of inorganic phosphorus with malachite green was colorimetrically determined at a wavelength of 610 nm. In addition, the amount of the inorganic phosphoric acid in the reaction solution free of potassium chloride was measured in the same manner, which was subtracted from the inorganic phosphoric acid amount in the presence of potassium chloride to determine the proton, potassium—adenosine triphosphatase activity. The inhibitory rate (%) was determined from the activity value of the control activity value and the activity values of various concentrations of the test compound, and the 50% inhibitory concentration (IC50) of the proton, potassium-adenosine triphosphatase was determined.

T1 sequence (P19156 2-1034 limits assumed): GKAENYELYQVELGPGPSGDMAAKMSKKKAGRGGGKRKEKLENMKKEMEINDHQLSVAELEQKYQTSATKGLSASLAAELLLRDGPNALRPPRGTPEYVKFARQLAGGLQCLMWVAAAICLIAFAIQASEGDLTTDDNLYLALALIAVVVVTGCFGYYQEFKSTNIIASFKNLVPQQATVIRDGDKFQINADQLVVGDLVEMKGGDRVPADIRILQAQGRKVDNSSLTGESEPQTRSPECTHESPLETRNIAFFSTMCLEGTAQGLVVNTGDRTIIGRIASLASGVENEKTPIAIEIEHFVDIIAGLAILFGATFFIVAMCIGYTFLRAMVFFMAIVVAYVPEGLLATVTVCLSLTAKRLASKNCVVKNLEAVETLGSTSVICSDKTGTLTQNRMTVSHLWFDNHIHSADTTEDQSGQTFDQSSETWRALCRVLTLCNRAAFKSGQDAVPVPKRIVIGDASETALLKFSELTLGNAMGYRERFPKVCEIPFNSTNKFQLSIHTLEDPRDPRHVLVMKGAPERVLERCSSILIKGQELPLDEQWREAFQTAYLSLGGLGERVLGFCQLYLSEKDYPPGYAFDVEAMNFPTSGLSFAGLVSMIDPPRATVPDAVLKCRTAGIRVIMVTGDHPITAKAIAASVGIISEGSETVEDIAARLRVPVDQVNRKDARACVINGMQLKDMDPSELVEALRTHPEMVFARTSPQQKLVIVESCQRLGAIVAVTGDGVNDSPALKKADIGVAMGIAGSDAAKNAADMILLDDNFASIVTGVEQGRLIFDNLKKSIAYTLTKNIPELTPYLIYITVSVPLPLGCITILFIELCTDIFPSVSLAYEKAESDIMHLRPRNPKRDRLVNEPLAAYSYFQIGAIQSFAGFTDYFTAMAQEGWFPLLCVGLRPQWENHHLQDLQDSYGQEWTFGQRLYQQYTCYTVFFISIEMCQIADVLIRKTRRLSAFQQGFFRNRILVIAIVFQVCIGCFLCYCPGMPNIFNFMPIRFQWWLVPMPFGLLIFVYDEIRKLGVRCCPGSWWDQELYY
T1 sequence (P18434 whole entry partner): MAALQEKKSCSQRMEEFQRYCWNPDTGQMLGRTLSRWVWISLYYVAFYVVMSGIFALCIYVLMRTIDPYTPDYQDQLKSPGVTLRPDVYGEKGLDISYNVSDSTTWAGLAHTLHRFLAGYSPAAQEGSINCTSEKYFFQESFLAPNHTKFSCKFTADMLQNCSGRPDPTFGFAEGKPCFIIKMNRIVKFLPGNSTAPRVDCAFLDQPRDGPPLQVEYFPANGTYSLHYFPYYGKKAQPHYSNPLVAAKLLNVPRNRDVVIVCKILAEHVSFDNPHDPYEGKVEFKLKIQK

| IC50 | Structure (SMILES) |
| --- | --- |
| 180 nM | CNCc1cn(-c2ccccc2)c(S(=O)(=O)c2ccccc2)c1C [Example 1, N-methyl-1-[4-methyl-1-phenyl-5-(phenylsulfonyl)-1H-pyrrol-3-yl]methanamine hydrochloride] |
| 160 nM | Cc1ccc(S(=O)(=O)n2cc(CN(C)C)nc2-c2ccccc2)cc1 [Example 5, N,N-dimethyl-1-{1-[(4-methylphenyl)sulfonyl]-2-phenyl-1H-imidazol-4-yl}methanamine 0.5 oxalate] |
| 30 nM | CNCc1cn(S(=O)(=O)c2cccc(OC)c2)c(-c2ccccc2)n1 [Example 7, 1-{1-[(3-methoxyphenyl)sulfonyl]-2-phenyl-1H-imidazol-4-yl}-N-methylmethanamine fumarate] |
| 170 nM | CNCc1nc(-c2ccccc2)c(S(=O)(=O)c2ccccc2)s1 [Example 12, N-methyl-1-[4-phenyl-5-(phenylsulfonyl)-1,3-thiazol-2-yl]methanamine hydrochloride] |
